≈ marks a conversion by molar mass, not a printed value. Some results are limits rather than exact numbers.

The text below walks through data of patent US20220127297A1, “Novel Antibacterial 3"-Derivatives Of 4,6-Disubstituted 2,5-Dideoxystreptamine Aminoglycoside Antibiotics” (AGILeBiotics B.V., priority 2018, published 2022).

This test concerns E. faecalis DSM 2570. The experiment in a line: MIC 50, broth micro-dilution, DSM strains. The format is cell-based, Enterococcus faecalis. Particulars: Enterococcus faecalis, DSM2570, read-out: MIC 50. The source says: 3.2 Against Selected Bacteria of the ESKAPE Panel and Enterococcus faecalis (DSM Strains)
Tested reference compounds. Amikacin sulfate (Cat. No. 01693, Chem-Impex), Gentamicin sulfate (Cat. No. G4918, Sigma Aldrich).
Microbial strains. Enterococcus faecalis DSM 2570, Klebsiella pneumoniae DSM 26371, Acinetobacter baumannii DSM 105126, Enterobacter cloacae 3MRGN (clinical bronchial aspirate isolate).
Culture media and equipment. BBL™ Mueller Hinton Broth 2 (Lot. BCBW1143, Cat. No. 70192, Sigma); Trypcase Soy Blood-agar plates (Cat. No. 43001, Biomérieux); Cryoinstant (contains 15% glycerol; Cat. No. 822070ZA, VWR International); GasPak™ EZ Standard Incubation Container (Cat. No. 260671, Becton Dickinson); GasPak™ EZ Campy Container System Sachets (Cat. No. 260680, Becton Dickinson); 96-well deep well plate, 1 mL (Cat. No. 0030506.200, Eppendorf); Plate lid (Cat. No. 0030131.525, Eppendorf); 96-well plate, F-bottom (Cat. No. 260860, Nunc); Incubator (Sartorius Certomat BS-1); Laminar flow (Heraeus HS12); UV/VIS meter (Perkin Elmer Lambda Bio+); Platereader (Tecan Infinite M200 Pro).
Compound preparation. Compounds were prepared in MH2 media at a concentration of 5 mM and stored at 4° C. For testing, solutions of 128 μM were prepared in MH2, for tests against E. faecalis a solution of 512 μM was prepared. Out of these working solutions, 400 μL was transferred to wells in the first column of 96-well deep well plates. Each compound was transferred in triplicate. Plates were previously filled with 200 μL of MH2 media in all wells except for the wells in the first column. After compound and antibiotic addition, the compounds were serial two-fold diluted by transferring 200 μL from the first to the second column, then from the second to the third column and so on. Finally, 200 μL was removed from the last column.
Inoculum preparation. Microorganisms used were all revived from 15% glycerol storage in Croinstant tubes at −28° C. by plating them on blood agar plates. A. baumanni, and E. cloacae were grown aerobically at 37° C., E. faecalis was grown microaerophilically at 37° C., and K. pneumoniae was grown aerobically at 37° C. Plates were stored at 4° C. for up to two weeks, after which new plates were prepared from −28° C. A single colony was inoculated in MH2 media and grown at 37° C. and 200 rpm to an optical density (measured by UV/Vis spectroscopy) of 0.6-0.8 at 600 nm. Out of these suspensions, actual inoculums were prepared by diluting them to an optical density of 0.1 in MH2 media. From these inoculums, 200 μL was transferred to each well, resulting in a final compound concentration range of 64 μM-31.3 nM for, K. pneumoniae, A. baumanni, and E. cloacae, and 256 μM-125 nM for E. faecalis. Plates inoculated with E. faecalis were placed inside a GasPak™ Container System with GasPak™ Campy Container System sachets. All plates were incubated at 200 rpm for 18 h under the microorganism culturing conditions mentioned above.
MIC determination. After 18 h of growth, 200 μL was transferred to a 96-well F-bottom plate. The optical density was determined by a plate reader at 600 nm, with 10 s shaking before reading. Triplicate measurements were averaged, and a growth curve was plotted in Excel. The first column in which the growth reached half the value of maximum growth was determined as the MIC50 value for that particular compound.
MIC50. The MIC50 of a compound was assigned at which the bacterial growth reached half the value of maximum growth.
(In general: In broth dilution the organism is exposed to a series of concentrations in liquid medium.)
On to `C[C@@H](N)CCNC(=N)NC1[C@@H](O)C(OC2[C@@H](F)[C@H](O[C@H]3OC(CN)[C@@H](O)CC3N)C(N)C[C@H]2NC(=O)[C@@H](O)CCN)O[C@H](CO)[C@H]1O` (stereo partly drawn) [ABX5047, Tobra-AHB-F-Gua (R) 3-amino-butyl], for which the MIC50 is 2 to 4 µM (≈ 1.37 to 2.74 µg/mL). As for `N=C(NCc1ccncc1)NC1[C@@H](O)C(OC2[C@@H](F)[C@H](O[C@H]3OC(CN)[C@@H](O)CC3N)C(N)C[C@H]2NC(=O)[C@@H](O)CCN)O[C@H](CO)[C@H]1O` (some centres unmarked) [ABX5048, Tobra-AHB-F-Gua pyridin-4-yl methyl], the MIC50 is 8 µM (≈ 5.63 µg/mL). Consider `N=C(NCc1cnc[nH]1)NC1[C@@H](O)C(OC2[C@@H](F)[C@H](O[C@H]3OC(CN)[C@@H](O)CC3N)C(N)C[C@H]2NC(=O)[C@@H](O)CCN)O[C@H](CO)[C@H]1O` (some centres unmarked) [ABX5050, Tobra-AHB-F-Gua imidazol-5-yl methyl], for which the MIC50 was in the range of 8 to 16 µM (≈ 5.54 to 11.1 µg/mL).

Consider `N=C(NCC1CCOC1)NC1[C@@H](O)C(OC2[C@@H](F)[C@H](O[C@H]3OC(CN)[C@@H](O)CC3N)C(N)C[C@H]2NC(=O)[C@@H](O)CCN)O[C@H](CO)[C@H]1O` (some centres unmarked) [ABX5051, Tobra-AHB-F-Gua tetrahydrofuran-3-yl methyl], for which the MIC50 was 8 µM (≈ 5.57 µg/mL). Regarding `NCC[C@H](O)C(=O)N[C@@H]1C[C@H](N)[C@@H](O[C@H]2O[C@H](CN)[C@@H](O)[C@H](O)[C@H]2O)[C@H](O)[C@H]1O[C@H]1O[C@H](CO)[C@@H](O)[C@H](N)[C@H]1O` [Amikacin, amikacin, reference compound], the MIC50 was over 64 µM.
